This is an account of results in patent publication US12012399B2, “Microbiocidal quinoline dihydro-(thiazine)oxazine derivatives” (priority 2018, dated 2024).

Series [1] has as its system Botryotinia fuckeliana (Botrytis cinerea). Description: Botryotinia fuckeliana (Botrytis cinerea) / liquid culture (gray mould). The following applies: 72 h, compared to untreated control, growth inhibition determined photometrically 3-4 days after application. Format: cell-based.
The subject of series [2] is Glomerella lagenarium (Colletotrichum lagenarium). Description: Glomerella lagenarium (Colletotrichum lagenarium) / liquid culture (anthracnose). Format: cell-based. The following applies: Colletotrichum orbiculare, compared to untreated control, growth inhibition measured photometrically 3-4 days after application.
In series [3] the test system is Fusarium culmorum. As to the kind of experiment: microbe, parasite or virus in culture. Format: cell-based. The following applies: read-out: control of Fusarium culmorum.
Series [4] deals with Monographella nivalis (Microdochium nivale). As to the kind of experiment: Monographella nivalis (Microdochium nivale) / liquid culture (foot rot cereals). It counts as cell-based. The following applies: compared to untreated control, growth inhibition determined photometrically 4-5 days after application.
For series [5], the system named is Mycosphaerella graminicola (Septoria tritici). As to the kind of experiment: Mycosphaerella graminicola (Septoria tritici) / liquid culture (Septoria blotch). It counts as cell-based. The following applies: Zymoseptoria tritici, compared to untreated control, growth inhibition determined photometrically 4-5 days after application.
The test system of series [6] is Magnaporthe grisea (Pyricularia oryzae). Description: microbe, parasite or virus in culture. It counts as cell-based. The note with it: read-out: control of Magnaporthe grisea.
Series [7] deals with Sclerotinia sclerotiorum. As to the kind of experiment: microbe, parasite or virus in culture. It counts as cell-based. The note with it: read-out: control of Sclerotinia sclerotiorum.

For `CC1CC(Cc2ccccc2)N=C(c2cnc3c(F)c(F)ccc3c2)O1` (single isomer, unassigned) [E-25, 4-benzyl-2-(7,8-difluoro-3-quinolyl)-6-methyl-5,6-dihydro-4H-1,3-oxazine], the inhibition of growth at 20 ppm in series [1] is no less than 80%; in series [2], no less than 80%; in series [3], no less than 80%; in series [4] it was no less than 80%; in series [5], no less than 70%.

On to `CC1(CCl)CC(Cc2ccccc2)N=C(c2cnc3c(F)c(F)ccc3c2)O1` (centres unmarked) [E-1, 4-benzyl-6-(chloromethyl)-2-(7,8-difluoro-3-quinolyl)-6-methyl-4,5-dihydro-1,3-oxazine], for which the inhibition of growth at 20 ppm is no less than 80% in series [1], no less than 80% in series [3], no less than 80% in series [4] and no less than 70% in series [5].

On to `CC1(C)CC(Cc2ccccc2)N=C(c2cnc3c(C#N)cccc3c2)O1` (centres unmarked) [E-2, 3-(4-benzyl-6,6-dimethyl-4,5-dihydro-1,3-oxazin-2-yl)quinoline-8-carbonitrile], for which the inhibition of growth at 20 ppm was no less than 80% in series [3], no less than 80% in series [4] and no less than 70% in series [5].

Consider `CC1(C)CC(Cc2ccccc2)N=C(c2cnc3c(Cl)cccc3c2)O1` (centres unmarked) [E-3, 4-benzyl-2-(8-chloro-3-quinolyl)-6,6-dimethyl-4,5-dihydro-1,3-oxazine], for which the melting point lay in the range of 150 to 152 °C. This compound also had an inhibition of growth at 20 ppm in series [1] of no less than 80%. The inhibition of growth at 20 ppm in series [4] is no less than 80%. Besides, the inhibition of growth at 20 ppm in series [5] is no less than 70%.

`Cc1cccc2cc(C3=NC(Cc4ccccc4)CC(C)(C)O3)cnc12` (centres unmarked) [E-4, 4-benzyl-6,6-dimethyl-2-(8-methyl-3-quinolyl)-4,5-dihydro-1,3-oxazine] gave a melting point of 120 to 122 °C. Further, the inhibition of growth at 20 ppm in series [1] was no less than 80%. For the same compound, the inhibition of growth at 20 ppm in series [4] is no less than 80%. The inhibition of growth at 20 ppm in series [5] is no less than 70%.

In the case of `CC1(C)CC(Cc2ccccc2)N=C(c2cnc3ccccc3c2)O1` (centres unmarked) [E-5, 4-benzyl-6,6-dimethyl-2-(3-quinolyl)-4,5-dihydro-1,3-oxazine], the inhibition of growth at 20 ppm in series [1] was no less than 80%; in series [2], no less than 80%; in series [3], no less than 80%; in series [4] it was no less than 80%; in series [5], no less than 70%.

As to `CC1(C)CC(Cc2ccccc2)N=C(c2cnc3c(F)c(F)ccc3c2)S1` (centres unmarked) [E-6, 4-benzyl-2-(7,8-difluoro-3-quinolyl)-6,6-dimethyl-4,5-dihydro-1,3-thiazine], the melting point is 153 to 155 °C. The same compound gave an inhibition of growth at 20 ppm in series [1] of no less than 80%. The inhibition of growth at 20 ppm in series [2] is no less than 80%. In series [3], the inhibition of growth at 20 ppm was no less than 80%. In series [4], the inhibition of growth at 20 ppm was no less than 80%.

Take `CC1(C)CC(Cc2ccccc2)N=C(c2cnc3c(F)c(F)ccc3c2)O1` (centres unmarked) [E-8, 4-benzyl-2-(7,8-difluoro-3-quinolyl)-6,6-dimethyl-4,5-dihydro-1,3-oxazine]: the melting point was in the range of 93 to 96 °C. Further, the inhibition of growth at 20 ppm in series [2] was no less than 80%.

As to `C[C@@]1(Cc2ccccc2)C[C@](C)(CCl)OC(c2cnc3c(F)cccc3c2)=N1` [E-11, (4R,6R)-4-benzyl-6-(chloromethyl)-2-(8-fluoro-3-quinolyl)-4,6-dimethyl-5H-1,3-oxazine], the inhibition of growth at 20 ppm in series [1] was no less than 80%; in series [2], no less than 80%; in series [3], no less than 80%; in series [4], no less than 80%; in series [6], no less than 80%; in series [5] it was no less than 70%.

Regarding `CC1(C)CC(Cc2ccccc2)(C(F)(F)F)N=C(c2cnc3c(F)cccc3c2)O1` (centres unmarked) [E-12, 4-benzyl-2-(8-fluoro-3-quinolyl)-6,6-dimethyl-4-(trifluoromethyl)-5H-1,3-oxazine], the inhibition of growth at 20 ppm in series [1], in series [2], in series [4] and in series [6] was no less than 80% in each case.

In the case of `CC1(C)CC(C)(C(F)(F)c2ccccc2)N=C(c2cnc3c(F)cccc3c2)O1` (centres unmarked) [E-14, 4-[difluoro(phenyl)methyl]-2-(8-fluoro-3-quinolyl)-4,6,6-trimethyl-5H-1,3-oxazine], the melting point was 101 to 105 °C. The compound also returned an inhibition of growth at 20 ppm in series [1] of no less than 80%. Moreover, the inhibition of growth at 20 ppm in series [2] was no less than 80%. The inhibition of growth at 20 ppm in series [4] was no less than 80%. The inhibition of growth at 20 ppm in series [6] is no less than 80%. Moreover, in series [5], the inhibition of growth at 20 ppm is no less than 70%.

Take `Cc1c(C2=NC(C)(Cc3ccccc3)CC(C)(C)O2)cnc2c(F)cccc12` (centres unmarked) [E-15, 4-benzyl-2-(8-fluoro-4-methyl-3-quinolyl)-4,6,6-trimethyl-5H-1,3-oxazine]: the inhibition of growth at 20 ppm was no less than 80% in series [1]; no less than 80% in series [2]; no less than 80% in series [4]; no less than 80% in series [6]; no less than 70% in series [5].

In the case of `CC1(Cc2ccccc2)CC(C)(C)OC(c2cnc3c(F)cccc3c2)=N1` (centres unmarked) [E-17, 4-benzyl-2-(8-fluoro-3-quinolyl)-4,6,6-trimethyl-5H-1,3-oxazine], the melting point was in the range of 115 to 116 °C. In series [1], this compound gave an inhibition of growth at 20 ppm of no less than 80%. This compound also yielded an inhibition of growth at 20 ppm in series [2] of no less than 80%. Further, in series [3], the inhibition of growth at 20 ppm was no less than 80%. The same compound had an inhibition of growth at 20 ppm in series [4] of no less than 80%. In addition, in series [6], the inhibition of growth at 20 ppm was no less than 80%. In series [5], the inhibition of growth at 20 ppm was no less than 70%.

Compound `Fc1ccc2cc(C3=NC(Cc4ccccc4)CC(CI)O3)cnc2c1F` (centres unmarked) [E-26, 4-benzyl-2-(7,8-difluoro-3-quinolyl)-6-(iodomethyl)-5,6-dihydro-4H-1,3-oxazine] gave a melting point of 137 to 139 °C. The compound further had an inhibition of growth at 20 ppm in series [1] of no less than 80%. For the same compound, in series [3], the inhibition of growth at 20 ppm is no less than 80%.

`N#Cc1c(F)ccc2cc(C3=NC(Cc4ccccc4)CC4(CCCC4)O3)cnc12` (centres unmarked) [E-27, 3-(9-benzyl-6-oxa-8-azaspiro[4.5]dec-7-en-7-yl)-7-fluoro-quinoline-8-carbonitrile]: the inhibition of growth at 20 ppm in series [1] is no less than 80%.

Compound `CC1(C)CC(Cc2ccccc2)N=C(c2cnc3c(C#N)c(F)ccc3c2)O1` (centres unmarked) [E-28, 3-(4-benzyl-6,6-dimethyl-4,5-dihydro-1,3-oxazin-2-yl)-7-fluoro-quinoline-8-carbonitrile] returned a melting point of 126 to 133 °C. For the same compound, the inhibition of growth at 20 ppm in series [1] was no less than 80%. Further, the inhibition of growth at 20 ppm in series [4] is no less than 80%. Further, the inhibition of growth at 20 ppm in series [6] was no less than 80%.

On to `CC1(C)CC(Cc2ccccc2)N=C(c2cnc3c(F)c(Cl)ccc3c2)O1` (centres unmarked) [E-29, 4-benzyl-2-(7-chloro-8-fluoro-3-quinolyl)-6,6-dimethyl-4,5-dihydro-1,3-oxazine], for which the melting point was in the range of 135 to 137 °C. The same compound came in with an inhibition of growth at 20 ppm in series [2] of no less than 80%. The compound further returned an inhibition of growth at 20 ppm in series [4] of no less than 80%. In addition, the inhibition of growth at 20 ppm in series [5] was no less than 70%.

`CC1(C)CC(Cc2ccccc2)N=C(c2cc3cccc(F)c3nc2F)O1` (centres unmarked) [E-30, 4-benzyl-2-(2,8-difluoro-3-quinolyl)-6,6-dimethyl-4,5-dihydro-1,3-oxazine] had a melting point of 105 to 107 °C. This compound showed an inhibition of growth at 20 ppm in series [1] of no less than 80%. In series [3], the inhibition of growth at 20 ppm was no less than 80%. In addition, the inhibition of growth at 20 ppm in series [4] is no less than 80%. In addition, the inhibition of growth at 20 ppm in series [6] is no less than 80%. Moreover, the inhibition of growth at 20 ppm in series [5] is no less than 70%.

Turning to `CC1(C)CC(Cc2ccccc2)N=C(c2cnc3cc(F)ccc3c2)O1` (centres unmarked) [E-32, 4-benzyl-2-(7-fluoro-3-quinolyl)-6,6-dimethyl-4,5-dihydro-1,3-oxazine], the inhibition of growth at 20 ppm was no less than 80% in series [1], no less than 80% in series [3], no less than 80% in series [4] and no less than 70% in series [5].

Consider `CC1(C)CC(Cc2ccccc2)N=C(c2cnc3cc(Cl)ccc3c2)O1` (centres unmarked) [E-33, 4-benzyl-2-(7-chloro-3-quinolyl)-6,6-dimethyl-4,5-dihydro-1,3-oxazine], for which the inhibition of growth at 20 ppm was no less than 80% in series [4] and no less than 70% in series [5].

For the compound `CC1(C)CC(Cc2ccccc2)N=C(c2cnc3c(F)c(C#N)ccc3c2)O1` (centres unmarked) [E-34, 3-(4-benzyl-6,6-dimethyl-4,5-dihydro-1,3-oxazin-2-yl)-8-fluoro-quinoline-7-carbonitrile], the inhibition of growth at 20 ppm in series [2] and in series [4] was no less than 80% each time.

Compound `Fc1ccc2cc(C3=NC(Cc4ccccc4)CC4(CCCC4)O3)cnc2c1Cl` (centres unmarked) [E-35, 9-benzyl-7-(8-chloro-7-fluoro-3-quinolyl)-6-oxa-8-azaspiro[4.5]dec-7-ene] registered a melting point of 150 to 151 °C. Further, in series [1], the inhibition of growth at 20 ppm was no less than 80%. This compound registered an inhibition of growth at 20 ppm in series [4] of no less than 80%. For the same compound, the inhibition of growth at 20 ppm in series [5] was no less than 70%.

As for `CC1(C)CC(Cc2ccccc2)N=C(c2cc3cccc(F)c3nc2Cl)O1` (centres unmarked) [E-36, 4-benzyl-2-(2-chloro-8-fluoro-3-quinolyl)-6,6-dimethyl-4,5-dihydro-1,3-oxazine], the inhibition of growth at 20 ppm in series [5] is no less than 70%.

Consider `CC1(Cc2ccccc2)CC(C)(C)OC(c2cnc3c(F)cccc3c2)=N1` (centres unmarked) [F-1], for which the melting point was in the range of 109 to 111 °C.

`CC1(Cc2ccccc2)CC(C)(C)OC(c2cnc3c(F)cccc3c2)=N1` (centres unmarked) [F-2] yielded a melting point of 111 to 112 °C. Further, the inhibition of growth at 20 ppm in series [7] is no less than 80%.

In turn, `CC1(C)CC(Cc2ccccc2)N=C(c2cnc3c(F)c(F)ccc3c2)O1` (centres unmarked) [F-6] showed a melting point of 102 to 105 °C.

As a reminder, the melting point is the temperature of the solid-liquid transition.
